# Results: patent publication US7872030B2, “Use of 2-[5-(4-fluorophenyl)-3-pyridylmethylaminomethyl]-chromane and its physiologically acceptable salts” (Merck Patent GmbH, priority 2001, dated 2011)
# Key:
# rats = assay: Induction of catalepsy in rats (extrapyramidal motor side effects); type: in vivo, rat; conditions: doses up to 500fold higher compared to the doses effective in the animal models
# Procedure: (§1) Extrapyramidal motor side effects in e.g. rodents are measured by the ability of a drug to induce catalepsy. Catalepsy is defined as a state where an animal continues to remain in an unnormal (nonphysiological ‘uncomfortable’) posture for a long time (e.g.: M. E. Stanley and S. D. Glick, Neuropharmacology, 1996; 15: 393-394; C. J. E. Niemegeers and P. Janssen, Life Sci., 1979, […]). For example, if a hindpaw of a rat is placed on an elevated level, e.g. a platform elevated 3 cm above ground level, a normal rat immediately withdraws the hindpaw from the platform to the ground level. A cataleptic rat remains in this unnatural posture even for minutes.
# [1] = system: catalepsy induced by haloperidol; assay: Catalepsy induced by conventional antidopaminergic drugs such as haloperidol; type: in vivo, rat; conditions: same dose-range as effective in the animal models
# Procedure: as §1
# [2] = system: Parkinsonian cynomolgus monkey; assay: Adverse effects of chronic l-dopa therapy in MPTP Parkinsonian cynomolgus monkey; type: in vivo; conditions: MPTP monkeys chronically treated with l-dopa
# Procedure: Treatment of adverse effects of conventional anti-Parkinsonian drugs as defined above are determined in a modification of the animal model of the Parkinsonian cynomolgus monkey according to P. J. Blanchet et al., Exp. Neurology 1998; 153: 214-222. Monkeys render parkinsonian by repeated injections of 1-methyl-4-phenyl-1,2,3,6-tetrahydropyridine (MPTP). The Parkinsonian monkeys are chronically treated with the standard l-dopa therapy according to P. J. Blanchet et al., Mov. Disord., 1998; 13: 798-802. Longterm treatment with l-dopa induces extrapyramidal motor side effects and psychotic states which are both qualitatively and quantitatively, assessed by the Abnormal Involuntary Movement Scale (P. J. Blanchet et al., Mov. Disord. 1998; 13: 798-802) for different body parts (face, neck, trunk, each limb) and by rating for psychotic states by observing the monkey's attention, reactivity and mobility.
# [3] = system: Parkinsonian cynomolgus monkey; assay: MPTP Parkinsonian cynomolgus monkey, Laval University Disability Scale; type: in vivo; conditions: MPTP monkeys
# Text: A typical animal model for idiopathic Parkinson's disease is the Parkinsonian cynomolgus monkey according to P. J. Blanchet et al., Exp. Neurology 1998; 153: 214-222. Monkeys render parkinsonian by repeated injections of 1-methyl-4-phenyl-1,2,3,6-tetrahydropyridine (MPTP). Parkinsonian symptoms are qualitatively assessed by the use of the Laval University Disability Scale (B. Gomez-Mancilla et al., 1993; Mov. Disord. 8: 144-150) measuring the following symptoms: posture, mobility, climbing, gait, holding food, vocalizing, grooming, social interaction.
# [4] = system: rats with nigrostriatal degeneration; assay: Striatonigral degeneration in the rat, turning behavior; type: in vivo; conditions: 6-hydroxydopamine plus quinolinic acid lesioned rats
# Text: Another more recent animal model is the striatonigral degeneration approach in the rat according to […] et al., J. Neural Transm. Suppl., 1999; 55: 103-113. Rats receive an unilateral injection of 6-hydroxydopamine into the left medial forebrain bundle followed by an injection of quinolinic acid into the ipsilateral striatum inducing nigrostriatal degeneration. The degeneration results in turning behavior to a challenge with dopaminomimetics such as apomorphine or amphetamine. Turning behavior is measured by an automated recorder.
# 3-NP treated rats = assay: Systemic 3-nitropropionic acid (3-NP) model in rats; type: in vivo, rat; conditions: for nocturnal akinesia (hypoactivity): after four injections of 3-NP (late Huntington's disease); for nocturnal hyperactivity: after two injections of 3-NP (early Huntington's disease)
# Text: A typical animal model is the systemic 3-nitropropionic acid (3-NP) model in rats according to C. V. Borlongan et al., Brain Res., 1995; 697: 254-257. […] After two injections of 3-NP, rats display nocturnal hyperactivity reflecting symptoms of early Huntington's disease, whereas rats treated with four injections of 3-NP display nocturnal akinesia (hypoactivity) reflecting symptoms of late Huntington's disease. Nocturnal activity is automatically measured in conventional acitivity cages by infrared beams.
# [5] = system: patients with cervical dystonia (spasmodic torticollis); assay: Double-blind, placebo-controlled study in cervical dystonia (TWSTRS); type: in vivo, human; conditions: 2.5 mg to 20 mg b.i.d.
# [6] = system: neuroleptics sensitized monkey; assay: Neuroleptics sensitized monkey; type: in vivo; conditions: after haloperidol challenge
# Text: Another typical animal model is the neuroleptics sensitized monkey according to D. E. Casey, Psychopharmacology, 1996; 124: 134-140. Monkeys treated repeatedly with conventional neuroleptics are highly sensitive to a subsequent challenge dose of neuroleptic drugs. When challenged, the monkeys immediately show extrapyramidal motor side effects such as dystonia, dyskinesias, akathisia, and bradykinesia which are rated by a scoring system. The conventional neuroleptic drug haloperidol is given as a challenge.
# Pietrain pig = assay: Campus Syndrome in the Pietrain pig (tremor); type: in vivo
# Text: (§2) Typical genetic models in mutant animals are the Campus Syndrome in the Pietrain pig according to A. Richter et al. (Exp. Neurology, 1995; 134: 205-213) or the Weaver mutant mouse according to J. R. Simon and B. Ghetti (Mol. Neurobiol., 1994; 9: 183-189). In the Campus Syndrome model, these mutant pigs show a high-frequency tremor when standing and during locomotion, but not while lying at rest. Assessment of tremor is made by accelerometric recording. In the Weaver mutant mouse, degenerative cerebellar atrophy is fould in association with tremor, gait instability, and toppling over the sides after a few steps.
# Weaver mutant mouse = Weaver mutant mouse (locomotor activity); conditions: in vivo
# Text: as §2
# [7] = system: oxotremorine-induced tremor; assay: Oxotremorine-induced tremor; conditions: in vivo
# Procedure: A typical animal model for drug-induced tremors is the oxotremorine-induced tremor (e.g. H. Hallberg and O. Almgren, Acta Physiol. Scand., 1987; 129: 407-13; J. G. Clement and W. R. Dyck, J. Pharmacol. Meth., 1989; 22: 25-36). Oxotremorine induces tremor which is measured by a rating scale.
# 5-HT1A receptor = target: T1, 5-HT1A receptor (Homo sapiens, UniProt P08908); conditions: compared with buspirone (IC50 […] nmol/l)
# T1 sequence (P08908 1-422): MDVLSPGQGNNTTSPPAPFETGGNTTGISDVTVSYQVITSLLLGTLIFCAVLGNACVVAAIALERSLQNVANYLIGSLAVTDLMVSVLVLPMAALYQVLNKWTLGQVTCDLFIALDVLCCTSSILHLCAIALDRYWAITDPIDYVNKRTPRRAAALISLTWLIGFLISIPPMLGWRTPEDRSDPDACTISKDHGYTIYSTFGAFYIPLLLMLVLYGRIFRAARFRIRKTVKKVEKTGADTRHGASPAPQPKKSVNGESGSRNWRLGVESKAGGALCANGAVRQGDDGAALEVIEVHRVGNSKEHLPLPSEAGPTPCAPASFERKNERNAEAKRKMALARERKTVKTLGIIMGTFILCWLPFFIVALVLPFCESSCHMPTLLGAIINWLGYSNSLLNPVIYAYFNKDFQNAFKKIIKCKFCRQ
SMILES,induction of catalepsy (rats),prevention of catalepsy induced by conventional antidopaminergic drugs [1],reversal of already existing catalepsy induced by conventional antidopaminergic drugs such as haloperidol [1],overall choreiform dyskinesias and dystonic dyskinesias (Abnormal Involuntary Movement Scale) [2],"psychotic states (attention, reactivity, mobility rating) [2]",parkinsonian symptoms (Laval University Disability Scale) [3],total activity [3],turning behavior induced by apomorphine or amphetamine [4],nocturnal akinesia (hypoactivity) (3-NP treated rats),nocturnal hyperactivity (3-NP treated rats),TWSTRS scores [5],"extrapyramidal motor side effects (dystonia, dyskinesias, akathisia, bradykinesia; score) [6]",tremor when standing and during locomotion (Pietrain pig),locomotor activity (Weaver mutant mouse),oxotremorine-induced tremors (rating scale) [7],agonist potency at the 5-HT1A receptor in contrast to buspirone (5-HT1A receptor)
Fc1ccc(-c2cncc(CNCC3CCc4ccccc4O3)c2)cc1 (racemic) [(R/S)-(−/+)-2-[5-(4-fluorophenyl)-3-pyridylmethylaminomethyl]-chromane],do not induce any catalepsy,able to prevent catalepsy,reverses already existing catalepsy,reduced,reduced,reduced all the parkinsonian symptoms,increased total activity,dose-dependently antagonized,reduce,reduce,significant improvement,dose-dependently reduce the extrapyramidal motor side effects,reduce disabling tremor,enhance locomotor activity,inhibit oxotremorine-induced tremors,more potent agonists
Fc1ccc(-c2cncc(CNC[C@@H]3CCc4ccccc4O3)c2)cc1 [(S)-(+)-2-[5-(4-fluorophenyl)-3-pyridylmethylaminomethyl]-chromane],do not induce any catalepsy,able to prevent catalepsy,reverses already existing catalepsy,reduced,reduced,reduced all the parkinsonian symptoms,increased total activity,dose-dependently antagonized,reduce,reduce,significant improvement,dose-dependently reduce the extrapyramidal motor side effects,reduce disabling tremor,enhance locomotor activity,inhibit oxotremorine-induced tremors,more potent agonists
